Assay results reported in patent US9504252B2, “Microbiocides and uses thereof” (Buckman Laboratories International, Inc., priority 2014, dated 2016).
Entries after “also recorded” stand apart in the source; their conditions may differ.

Experiments:
[1] = system: sulfate reducing bacteria (SRB); assay: kill study, API broth serial dilution (SRB); format: cell-based; conditions: for API SERIES: SRB count, seven days, 30° C.
Method: (§1) A one gallon sample of cone water from a contaminated drilling fluid (run through a hydrocyclone) in the DJ (Denver-Julesburg Basin) formation was employed for these studies. The cone water pH was measured at 6.4 and the redox potential was at 34.6. The sample included anaerobic sulfate reducing, aerobic and anaerobic acid producing bacteria and general heterotrophic bacteria. Both organism types were present in this sample with the SRB+H2S at levels in excess of 10^12 bacteria per milliliter in the original sample.
(§2) In order to ensure that the active range was captured, the contaminated water was diluted with Butterfield phosphate buffer solution to a concentration of 0.1% of its original concentration. Serial dilutions were made using 1 cc sterile syringes to inoculate 9.0 mL anaerobic American Petroleum Institute (API) broth with an iron nail designed for sulfate reducing bacteria (SRB). In addition, Acid Producing B acteria (APB) and General Heterotrophic Bacteria (GHB) were tested using serial dilutions in 9 mL phenol red (PR) broth. The media salinity was matched to the substrate salinity of ≈0.5% that was measured by percent Total Dissolved Solids (TDS). Additionally, an untreated control was included. In all cases the concentration was determined on a weight/weight basis of parts per million (milligrams per kilogram). Each aliquot was continuously mixed (in a thermally controlled incubator) well after the addition of the biocide and maintained at 30° C. for the duration of study.
(§3) Untreated and treated aliquots were inspected after seven days checking to see if the bottles the API bottles turned black (indicating positive SRB growth) and to see if the PRD bottles turned yellow (indicating the presence of APB) and/or turbidity (indicating the presence of GHB). A color change at the highest dilution indicated the log quantity of organisms present.

[2] = system: Acid Producing Bacteria (APB) and General Heterotrophic Bacteria (GHB); assay: kill study, phenol red broth serial dilution (APB/GHB); format: cell-based; conditions: for PRD SERIES: APB and GHB count, seven days, 30° C.
Method: as §1, §2, §3

`CNC(=S)[S-].[Na+]` [SNMDTC, sodium-N-methyldithiocarbamate] was tested, and the “decrease in SRB concentration” value ([1]; 1,000 ppm) was “did not appear to be any noticeable decrease”, the “API SERIES” value ([1]; 1,000 ppm total biocide) was >10^4 and the “API SERIES” value ([1]; 10,000 ppm total biocide) was >10^2. The “decrease in bacterial concentration of SRB” value ([1]; 10,000 ppm, over a period of eight days) was “two”, the “decrease in APB/GHB concentration” value ([2]; 1,000 ppm) was “did not appear to be any noticeable decrease; also recorded: did not have any noticeable effect” and the “PRD SERIES” value ([2]; 1,000 ppm total biocide) was “≧10^3”. For the same molecule, the “PRD SERIES” value ([2]; 10,000 ppm total biocide) was >10^2.
